Values after ≈ are worked out from the molar mass of the structure shown. Like-named read-outs stand apart in the source and are kept apart here.
Columns and labels:
PC-3 cells [1] = test: Glucose uptake assay (2-NBDG), FACS-based readout; assay type: cell-based, human; conditions: PC-3, 24 h
Experimental: (§1) The effects of the synthesized substance on glucose uptake were evaluated using the Glucose Uptake Cell-Based Assay Kit (Cayman chemicals, Ann Arbor, MI, USA) and two different methods. (a) Plate reader-based measurement: PC-3 cells (12 × 10^3 cells/well) were seeded in two 96-well plates, incubated overnight, and treated with the investigated drugs in 100 µL/well of glucose-free 0.1% FBS/RPMI media for 24 h. Then, the 10 µL/well of either 2-NBDG solution (2-deoxy-2-[(7-nitro-2,1,3-benzoxadiazol-4-yl)amino]-D-glucose, 5 mg/mL, for glucose uptake measurements) or vehicle solution (for cell viability measurements) in glucose-free 0.1% FBS/RPMI media were added to each well. […] Then, for glucose uptake measurements, the 100 µL/well of PBS were added and the fluorescence was measured using Infinite F200PRO reader (TECAN, Männedorf, Switzerland); or, for the cell viability measurements, 100 µL/well of media containing MTS reagent were added to the cells and viability was measured as described before. Glucose uptake rate was normalized to the cell viability measured by MTS assay in order to measure the uptake rate exclusively in the viable cells. (b) FACS-based readout: The experiment was performed as described before. […] The plates were then incubated with 2-NBDG solution, the cells were harvested by trypsination, washed, stained with PI, and analyzed using a flow cytometry.

22Rv1 cells [2] = test: Analysis of mitochondrial membrane potential (JC-1, FACS); assay type: cell-based, human
Experimental: The drop down of mitochondrial membrane potential (ΔΨm) was measured using staining with ΔΨm-sensitive JC-1 dye (5,5′,6,6′-Tetrachloro-1,1′,3,3′-tetraethyl-imidacarbocyanine iodide) and flow cytometry technique. Cells (10^5 cells/well) were seeded in 12-well plates and incubated overnight. […] The cells were trypsinized, pelleted, resuspended in 100 µL of 2 µM JC-1/PBS, incubated for 1 h (37 °C, 5% CO2, in the dark), and analyzed by flow cytometry technique.

PC-3 cells [3] = test: Glucose uptake assay (2-NBDG), plate reader-based measurement; assay type: cell-based, human; conditions: PC-3, 24 h
Experimental: as §1

22Rv1 cells [4] = test: Analysis of cell cycle progression and DNA fragmentation (PI staining, FACS); assay type: cell-based, human; conditions: 22Rv1, 48 h
Experimental: Cells (2 × 10^5 cells/well) were pre-incubated overnight in 6-well plates. Then, cells were treated with the substances in 2 mL of fresh culture media/well for 48 h. Cells were harvested by trypsination, fixed in 70% EtOH, stained with PI, and analyzed by FACS Calibur (BD Bioscience, San Jose, CA, USA). The results were quantified using BD Bioscience Cell Quest Pro v.5.2.1. software (BD Bioscience, San Jose, CA, USA). The sub-G1 population was considered to reflect apoptotic cells (containing fragmented DNA).

[5] = system: human drug-resistant prostate cancer PC-3 cells; test: MTT cytotoxicity in PC-3 cells; assay type: cell-based; conditions: for IC50: 24 h, read-out: IC50 (viability of PC-3 cells)
Experimental: (§2) Cell viability was determined by MTT assay. Cells were pre-incubated overnight in 96-well plates (6 × 10^3 cells/well in 100 μL/well). Then, the medium was replaced with fresh medium containing the determined compounds (100 μL/well), and cells were incubated for the indicated time. Next, 10 μL/well of (3-(4,5-dimethylthiazol-2-yl)-2,5-diphenyltetrazolium bromide) reagent were added. After 2–4 h of incubation, the media was aspirated and the plates were dried. Fifty microliters per well of DMSO were added to each well and the cell viability was measured using Infinite F200PRO reader (TECAN, Männedorf, Switzerland). Results were calculated by The GraphPad Prism software v. 7.05 (GraphPad Prism software Inc., La Jolla, CA, USA) and are represented as IC50 of the compounds against control cells treated with the solvent alone.

22Rv1 cells [6] = test: Cell fractionation (mitochondrial, cytoplasmic, total) with Western blotting; assay type: cell-based, human; conditions: 22Rv1, 48 h
Experimental: (§3) Cells (10^6 cells/well) were seeded in Petri dishes (ø 6 cm) and incubated overnight. The cells were treated with the investigational drugs in fresh culture media (5 mL/dish) for 48 h. Then, cells were harvested by scratching and lysed in the lysis buffer (1% NP-40, 50 mM Tris-HCl (pH 7.6), 0.88% NaCl, 0.25% sodium cholate, 1 mM Na3VO4, 0.1 mM PMSF, protease inhibitors cocktail (cOmplete Mini EDTA-free EASYpacks, Roche, Mannheim, Germany)). Proteins were extracted and diluted with lysis buffer and loading dye, heated 5 min at 99 °C and subjected to electrophoresis in gradient Mini-PROTEAN® TGX Stain-Free^TM gels (Bio-Rad, Hercules, CA, USA). Proteins were transferred from gel to 0.2 µm pore PVDF membrane using Trans-Blot® Turbo^TM RTA Mini PVDF Trans kit (Bio-Rad) and Trans-Blot® Turbo^TM Blotting System (Bio-Rad) according to the manufactures protocol. The membrane was blocked (5% BSA in 0.05% Tween-20/TBS), treated with primary and secondary antibodies, and the signals were detected using the ECL chemiluminescence system (Thermo Scientific, Rockford, IL, USA). All procedures were performed according to the manufacturer′s protocols.
The separation of cellular nuclear, mitochondrial, and cytosolic fractions was performed using the Cell Fractionation Kit ab109719 (abcam, Cambridge, MA, USA). […]

22Rv1 cells [7] = test: MTT cytotoxicity in 22Rv1 cells with or without N-acetyl-L-cysteine; assay type: cell-based, human; conditions: without NaC, FBS- and glucose-free media, 48 h, read-out: IC50 (viability of 22Rv1 cells)
Experimental: as §2

22Rv1 cells [8] = test: Analysis of intracellular ROS level (CM-H2DCFDA, FACS); assay type: cell-based, human; conditions: 2 h
Experimental: Intracellular ROS levels were accessed using the ROS-sensitive CM-H2DCFDA reagent (Cat. No. C6827, Molecular probes, Invitrogen, Eugene, OR, USA). The experiment was performed as previously described with slight modifications. In brief, 22Rv1 cells (10^5 cells/well) were seeded in 12-well plates and incubated overnight. The media was changed with freshly made pre-warmed staining solution (4 µM CM-H2DCFDA/PBS, 0.5 mL/well) and incubated in the dark (37 °C, 5% CO2) for 30 min. Then, the staining solution was exchanged with 1 mL/well of pre-warmed PBS containing the investigated compounds or H2O2 (positive control) at the indicated concentrations and the cells were incubated for 2 h. Next, the cells were trypsinized, resuspended in pre-warmed PBS (200 µL/sample) and immediately analyzed by FACS according to the manufacture′s protocol.

22Rv1 cells [9] = test: Western blotting of protein expression; assay type: cell-based, human; conditions: for cleavage of caspase-3 (Western blotting) / p21 expression (Western blotting) / PARP cleavage (Western blotting): 22Rv1, 48 h; for PARP cleavage (Western blotting): concentrations close to IC50s
Experimental: as §3

PC-3 cells [10] = assay type: cell-based, human; conditions: PC-3, zVAD 100 µM, 48 h
[11] = system: five prostate cancer (LNCaP, 22Rv1, VCaP, PC-3, and DU145) vs. five non-cancer (PNT2, RWPE-1, HEK 293T, MRC-9, and HUVEC) cell lines; test: Mean MTT cytotoxicity in five prostate cancer vs. five non-cancer cell lines; assay type: cell-based, human; conditions: 48 h
Experimental: as §2

[12] = system: human cancer HeLa S3 cells; parameters: method as in PMID 3437287; conditions: cited from earlier work
[13] = glucose-containing media (+Glc, 2 g/L)

Compound | glucose uptake (2-NBDG, single cells by flow cytometry), normalized to cell viability (PC-3 cells [1]) | glucose uptake (2-NBDG, plate reader), normalized to cell viability (PC-3 cells [3]) | DNA fragmentation (sub-G1 peak) (22Rv1 cells [4]) | cell cycle progression (22Rv1 cells [4]) | IC50 [5, 13] [µM] | IC50 ([5]; glucose-free media (−Glc)) [µM] | IC50 (22Rv1 cells [7]) [µM] | cleavage of caspase-3 (Western blotting) (22Rv1 cells [9]) | p21 expression (Western blotting) (22Rv1 cells [9]) | PARP cleavage (Western blotting) (22Rv1 cells [9]) | effect of co-treatment with pan-caspase inhibitor zVAD on cytotoxic effects (PC-3 cells [10]) | other results
6-(1,2,3,4-Tetra-O-acetyl-6-deoxy-β-D-glucopyranos-6-ylthio)-5,8-dihydroxy-7-methyl-2,3-dimethoxy-1,4-naphthoquinone [SAB-13] | inhibition of glucose uptake | inhibition of glucose uptake | DNA fragmentation | G2/M-cell cycle arrest | 10.8 ± 1.7 | 5 ± 1.1 | 2.3 ± 0.3 | cleavage of caspase-3 was observed | upregulation of p21 | PARP cleavage | antagonized the cytotoxic effects | cells containing depolarized mitochondria (JC-1) (22Rv1 cells [2]; 22Rv1, 2 μM, 2 h): 47.3±6.1%; cells containing depolarized mitochondria (JC-1) (22Rv1 cells [2]; 22Rv1, 2 μM, 48 h): 69.5±8.1%; higher cytotoxicity compared with SAB-14 ([5]; screening, MTT, 48 h): ~ 10 fold; redistribution of mitochondrial proteins (cytochrome C, AIF) to cytoplasm (22Rv1 cells [6]): release of cytotoxic mitochondrial proteins to cellular cytoplasm; ROS level (CM-H2DCFDA, FACS) (22Rv1 cells [8]; 22Rv1, 0.5 μM): 31.2±3.2%; caspase-9 activation (cleaved caspase-9, Western blotting) (22Rv1 cells [9]; 22Rv1, 2 h): activated caspase-9 shortly after treatment
6-(6-Deoxy-D-glucopyranos-6-ylthio)-5,8-dihydroxy-7-methyl-2,3-dimethoxy-1,4-naphthoquinone [SAB-14] | inhibition of glucose uptake | inhibition of glucose uptake | DNA fragmentation | G2/M-cell cycle arrest | 22.6 ± 7.3 | 4.7 ± 1.4 | 4.6 ± 2.9 | cleavage of caspase-3 was observed | upregulation of p21 | PARP cleavage | antagonized the cytotoxic effects | selectivity to prostate cancer cells vs. non-cancer lines (mean cytotoxicity) [11]: higher selectivity to the cancer cells; cells containing depolarized mitochondria (JC-1) (22Rv1 cells [2]; 22Rv1, 10 μM, 2 h): 20.4±3.6%; cells containing depolarized mitochondria (JC-1) (22Rv1 cells [2]; 22Rv1, 10 μM, 48 h): 47±1.0%; selectivity index (SI), IC50 (PNT2)/IC50 (PC-3) ([5]; MTT, 48 h): > 2; ROS level (CM-H2DCFDA, FACS) (22Rv1 cells [8]; 22Rv1, 5 μM): 9.9±0.4%
COC1=C(OC)C(=O)c2c(O)c(OC)cc(O)c2C1=O [tricrozarin B] | – | – | – | – | – | – | – | – | – | – | – | IC50 (colony formation) [12]: 7 ng/mL (≈ 0.025 µM)

From article PMC7281150, “Inspired by Sea Urchins: Warburg Effect Mediated Selectivity of Novel Synthetic Non-Glycoside 1,4-Naphthoquinone-6S-Glucose Conjugates in Prostate Cancer” (Marine Drugs, 2020)
